From paper PMC12416277, “Phytochemical alkaloids orchestrate immunometabolism against viral infections” (National Science Review, 2025) come the findings set out here.

Test [1] concerns VSV. It counts as cell-based, vesicular stomatitis virus (VSV).
Test [2] relates to HSV-1. Type of test: cell-based, herpes simplex virus 1 (HSV-1).
In test [3] the test system is TBK1, STAT1 and STAT2 phosphorylation. Put plainly: Immunoblotting of p-TBK1, p-STAT1, p-STAT2 in THP-1 and MEF cells. It counts as cell-based. The note with it: THP-1, MEF cells. A general note: Immunoblotting shows a protein as a band on a membrane.
Test [4] has as its system H1N1. It counts as cell-based, influenza virus A (H1N1).
The test system of test [5] is IFN-β. Put plainly: IFN-β secretion in MEF cells (ELISA). Type of test: cell-based. For orientation: An ELISA detects its analyte on a solid surface through an enzyme-linked reagent.
Test [6] deals with VSV. It counts as cell-based, vesicular stomatitis virus (VSV). This is another data set of the same source.
In test [7] the test system is EMCV. In words: microbe, parasite or virus in culture. The following applies: Cardiovirus A, A549. It counts as cell-based, encephalomyocarditis virus (EMCV).
Test [8] concerns STING. It counts as cell-based.
Test [9] deals with A549 cells. It counts as cell-based.
For test [10], the system named is H1N1. Put plainly: Dose-response of infectivity, H1N1 in L929 cells. Type of test: cell-based. The following applies: Influenza A virus.
Test [11] concerns HSV-1. Put plainly: microbe, parasite or virus in culture. Type of test: cell-based, herpes simplex virus 1 (HSV-1). The note with it: Human alphaherpesvirus 1, A549.
Test [12] relates to Ifnb1, Ifit1, Ifit2 and Ifi44 mRNA. Put plainly: Ifnb1 and ISG mRNA in mouse lungs, livers, spleens after intraperitoneal injection. Type of test: in vivo. The note with it: intraperitoneal 30, 60 mg/kg/d, 24-48 h.
The subject of test [13] is H1N1. Put plainly: In vivo H1N1 infection mouse model. Further details: species or system C57/BL6J mice. The following applies: mice.
In test [14] the target is T1, NPC1 (Homo sapiens, UniProt O15118).
T1 sequence (O15118 23-1278): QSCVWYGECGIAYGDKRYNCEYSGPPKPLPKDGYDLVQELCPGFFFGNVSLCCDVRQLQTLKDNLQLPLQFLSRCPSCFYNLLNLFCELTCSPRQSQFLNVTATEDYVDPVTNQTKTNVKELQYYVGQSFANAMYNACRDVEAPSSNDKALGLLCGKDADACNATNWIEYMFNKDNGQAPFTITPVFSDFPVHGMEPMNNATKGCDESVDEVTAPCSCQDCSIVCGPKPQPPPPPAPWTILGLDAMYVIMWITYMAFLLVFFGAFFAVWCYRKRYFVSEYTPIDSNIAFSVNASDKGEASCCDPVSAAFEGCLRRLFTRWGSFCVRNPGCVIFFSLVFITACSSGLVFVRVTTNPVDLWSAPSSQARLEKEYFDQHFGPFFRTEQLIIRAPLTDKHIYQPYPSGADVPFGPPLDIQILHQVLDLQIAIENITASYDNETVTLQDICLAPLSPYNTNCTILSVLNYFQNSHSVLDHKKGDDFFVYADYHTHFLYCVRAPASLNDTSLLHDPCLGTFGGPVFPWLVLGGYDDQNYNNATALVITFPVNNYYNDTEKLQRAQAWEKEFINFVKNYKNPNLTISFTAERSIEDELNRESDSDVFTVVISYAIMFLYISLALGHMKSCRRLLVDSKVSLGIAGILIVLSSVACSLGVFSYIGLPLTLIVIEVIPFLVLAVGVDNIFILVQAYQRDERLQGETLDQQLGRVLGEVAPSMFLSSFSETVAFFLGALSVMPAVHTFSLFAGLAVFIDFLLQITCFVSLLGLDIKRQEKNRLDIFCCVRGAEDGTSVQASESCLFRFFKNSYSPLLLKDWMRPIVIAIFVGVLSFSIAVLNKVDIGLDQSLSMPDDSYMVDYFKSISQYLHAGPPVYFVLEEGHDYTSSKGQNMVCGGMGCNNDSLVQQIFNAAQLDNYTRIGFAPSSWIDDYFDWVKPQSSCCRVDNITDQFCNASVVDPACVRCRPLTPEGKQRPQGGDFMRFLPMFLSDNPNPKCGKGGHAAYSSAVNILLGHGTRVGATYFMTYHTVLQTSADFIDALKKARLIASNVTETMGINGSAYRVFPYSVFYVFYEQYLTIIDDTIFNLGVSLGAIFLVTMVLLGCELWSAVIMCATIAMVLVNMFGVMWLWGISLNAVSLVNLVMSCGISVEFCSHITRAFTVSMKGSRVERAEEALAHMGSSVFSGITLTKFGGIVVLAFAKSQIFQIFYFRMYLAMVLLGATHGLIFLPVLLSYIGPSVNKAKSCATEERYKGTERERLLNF
It counts as binding. The note with it: read-out: SPR KD.

The mark [15] stands for this setting: H1N1, intranasal administration.

As a reminder, the EC50 is the midpoint of the concentration-response curve. Low readings indicate a more potent agent, high ones a less potent agent. For orientation: Kd means the constant that tells how readily two partners part at equilibrium. As to `COc1ccc2cc1Oc1ccc(cc1)C[C@H]1c3cc(c(OC)cc3CCN1C)Oc1c(OC)c(OC)cc3c1[C@H](C2)N(C)CC3` [Tet, tetrandrine], in test [1], the “antiviral effect against VSV” value is “diminished”. Besides, the “antiviral effect against HSV-1” value in test [2] is recorded as “markedly reduced”. In addition, in [3], the “phosphorylation of TBK1, STAT1 and STAT2” value is “increased the phosphorylation of TBK1, STAT1 and STAT2 in a time- and dose-dependent manner”. Besides, the “antiviral effect against H1N1” value in test [4] was “diminished”. Further, the IFN-β production result in [5] is listed as “induced”. For the same compound, in test [6], the “VSV replication (VSV-G protein, immunoblotting)” value is on record as “inhibited”. This compound gave a concentration for a half-maximal effect (EC50) in test [7] of 0.231 µM. In addition, the “time-dependent degradation of STING induced by DMXAA” value in test [8] is reported as “significantly attenuated”. Besides, in test [9], the intracellular cholesterol levels result is “higher intracellular cholesterol levels”. For the same compound, the response in test [10] was half-maximal at 0.541 µM (EC50). For the same compound, the EC50 in test [11] amounted to 1.59 µM. Besides, the “Ifnb1 and ISGs mRNA levels in vivo” value in [12] was “increased Ifnb1 and ISGs mRNA levels in vivo, particularly in lungs and livers”. Besides, in [13] (H1N1), the “NP protein expression in lung tissue” value is “inhibited”; the “alveolar damage and inflammatory infiltrations in lung tissues (H&E)” value is given as “significantly alleviated”. Also, in [13] (setting [15]), the body weight recovery result is reported as “expedited body weight recovery” and the survival rates result is given as “improved survival rates”. The Kd in test [14] turned out to be 22.2 µM.
